# Experimental data taken from PubChem BioAssay (NCI).
# “And” between values parts separate entries of the source, which are not always exact repeats. Identical values can stand only once.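 Method: 48-hour compound exposure of cells in 96-well plates, five concentrations, linear interpolation of endpoints. Here, GI50 denotes the concentration required for 50% inhibition of growth. TGI is the concentration that stops growth completely.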
# Assays:
# Assay in all cases: inhibition of tumour cell growth, NCI panel, 48 h
# [1] = system: CCRF-CEM leukemia
# [2] = system: EKVX NSCLC
# [3] = system: A498 renal
# [4] = system: SNB-75 CNS
# [5] = system: OVCAR-5 ovarian
# [6] = system: MDA-MB-231 breast
# [7] = system: KM12 colon
# [8] = system: CAKI-1 renal
# [9] = system: COLO 205 colon
# [10] = system: BT-549 breast
# [11] = system: OVCAR-8 ovarian
# [12] = system: M14 melanoma
# [13] = system: RXF 393 renal
# [14] = system: SR leukemia
Compound,TGI [1] [µM],TGI [2],TGI [3],TGI [4],TGI [5],TGI [6],TGI [7],TGI [8],TGI [9] [µM],TGI [10],TGI [11] [µM],TGI [12] [µM],TGI [13],TGI [14] [µM],GI50 [8],GI50 [1] [µM],GI50 [5],GI50 [6],GI50 [7],GI50 [11]
O=C1OC(C2Cc3ccc4c(c3C2=O)CCCC4)c2ccccc21 (stereo not drawn),> 100,> 100 µM,53.6 µM,> 100 µM,> 100 µM,> 100 µM,> 100 µM,> 100 µM,> 100,> 100 µM,> 100,> 100,–,–,–,–,–,–,–,–
CC(CC(C)[C@H]1CCC2[C@H]3C(CC(=O)[C@@]21C)[C@@]1(C)CCC(O)C[C@H]1C[C@@H]3O)C(=O)O (stereo partly drawn),> 100,> 100 µM,> 100 µM,> 100 µM,> 100 µM,> 100 µM,> 100 µM,> 100 µM,> 100,> 100 µM,> 100,> 100,> 100 µM,> 100,–,–,–,–,–,–
CC(C)N(C(=O)C12C3(C(=O)C(C)(C)C)C4C5(C#N)C3C1(C(=O)C(C)(C)C)C5C42C(=O)C(C)(C)C)C(C)C (stereo not drawn),> 100,> 100 µM,> 100 µM,91 µM,> 100 µM,> 100 µM,> 100 µM,> 100 µM,> 100,> 100 µM,> 100,> 100,> 100 µM,> 100,–,–,–,–,–,–
Cc1ccc(S(=O)(=O)OI(O)CC(F)(F)F)cc1,> 100,> 100 µM,> 100 µM,> 100 µM,> 100 µM,> 100 µM,> 100 µM,> 100 µM,> 100,> 100 µM,> 100,> 100,> 100 µM,> 100,–,–,–,–,–,–
N#CCN1CCN(CC#N)CCN(CC#N)CCN(CC#N)CC1,> 100,–,> 100 µM,> 100 µM,> 100 µM,> 100 µM,> 100 µM,> 100 µM,> 100,> 100 µM,> 100,> 100,> 100 µM,> 100,–,–,–,–,–,–
O=c1cc(-c2ccc3ccccc3c2)[nH]c2ncccc12,> 100,> 100 µM,48.7 µM,62.6 µM,> 100 µM,> 100 µM,> 100 µM,> 100 µM,> 100,> 100 µM,> 100,> 100,–,6.1,5.63 µM,–,–,–,–,–
Cc1ccc(C2=Nn3c(nc4sc5c(c4c3=O)CCCC5)SC2)cc1,> 100,> 100 µM,> 100 µM,> 100 µM,> 100 µM,> 100 µM,> 100 µM,> 100 µM,> 100,> 100 µM,> 100,–,> 100 µM,> 100,–,–,–,–,–,–
CC(C)(C)OC(=O)NCC(=O)N(CCc1ccc(Cl)c(Cl)c1)CCN1CCCC1,28.4,48.1 µM,32.8 µM,37.2 µM,38.7 µM,26.6 µM,32.6 µM,36 µM,30,42.1 µM,35.8,28.6,29.7 µM,32.2,–,–,–,–,–,–
CCOC(=O)CNC(=O)CNC(=O)CNC(=O)CNNc1c(OCc2ccccc2)c(=O)c1=O,> 100,> 100 µM,> 100 µM,> 100 µM,> 100 µM,> 100 µM,> 100 µM,> 100 µM,> 100,> 100 µM,> 100,> 100,> 100 µM,–,–,–,–,–,–,–
COCCNC1CCC(=O)c2[nH]c3ccccc3c21 (stereo not drawn),> 100,> 100 µM,> 100 µM,> 100 µM,> 100 µM,> 100 µM,> 100 µM,> 100 µM,> 100,> 100 µM,> 100,> 100,> 100 µM,> 100,–,–,–,–,–,–
CNC(=O)OCc1nc(N=[N+]=[N-])n(C)c1COC(=O)NC,> 100,> 100 µM,> 100 µM,> 100 µM,> 100 µM,> 100 µM,> 100 µM,61 µM,> 100,> 10 µM,> 100,–,54.5 µM,86,–,–,–,–,–,–
C=CCN1C(=O)/C(=C/c2ccc(OC)cc2)N=C1SC1OC(COC(C)=O)C(OC(C)=O)C(OC(C)=O)C1OC(C)=O (stereo not drawn),> 100,46 µM and > 100 µM,> 100 µM and 86.2 µM,40.7 µM and > 100 µM,39.7 µM and > 100 µM,42.9 µM and > 100 µM,62.5 µM and > 100 µM,33 µM and > 100 µM,> 100,38.1 µM and 96.1 µM,> 100,> 100,46.5 µM and 89.5 µM,> 100,16 µM and > 100 µM,21.7,19.3 µM and 56.3 µM,18.8 µM and 39.2 µM,21.4 µM and > 100 µM,13.1 µM and 54.1 µM
O=C(/C=C/c1ccc(O)cc1)c1cc(-c2cc(CCC(=O)c3ccc(O)cc3O)ccc2O)c(O)cc1O,43.6,> 50 µM,> 50 µM,41.7 µM,> 50 µM,> 50 µM,> 50 µM,> 50 µM,22.6,> 50 µM,> 50,> 50,> 50 µM,29.5,–,–,–,–,–,–
O=C(/C=C/c1ccccc1Br)c1ccccc1,3.85,26.4 µM,11.1 µM,25.4 µM,34.2 µM,27.5 µM,6.53 µM,8.37 µM,28.6,26.4 µM,8.31,15.1,20.1 µM,–,–,–,–,–,–,–
CC1=NN(C(=O)CC(=O)Nc2ccc(Cl)cc2)C(=O)C1N=Nc1ccc(S(=O)(=O)c2ccc(N=NC3C(=O)N(C(=O)CC(=O)Nc4ccc(Cl)cc4)N=C3C)cc2)cc1 (stereo not drawn),> 100,> 100 µM,> 100 µM,> 100 µM,> 100 µM,> 100 µM,> 100 µM,> 100 µM,> 100,> 100 µM,> 100,> 100,> 100 µM,> 100,–,–,–,–,–,–
COC(=O)/C=C1/OC(c2ccc(C)cc2C)=CC1=O,> 100,> 100 µM,42.3 µM,29.4 µM,31.7 µM,27.5 µM,31.8 µM,34.5 µM,30.2,29.9 µM,37.4,31.1,24.9 µM,> 100,–,–,–,–,–,–
